Measured values: patent publication US20220213052A1, “INHIBITORS OF RNA-BINDING PROTEINS, COMPOSITIONS THEREOF, AND THERAPEUTIC USES THEROF” (The University of North Carolina at Chapel Hill, priority 2019, published 2022)

Assays:
[1] = test system: MDA-MB-231 HuR knockout clones (HuR KO1 and HuR KO2); test: Cytotoxicity against HuR knockout clones of MDA-MB-231; type: cell-based; settings: HuR KO1 and HuR KO2 vs MDA-MB-231 and sgControl
Protocol: The cytotoxicity of various compounds of the present technology in several cancer cell lines (pancreatic cancer cell line MIAPaCa-2, triple-negative breast cancer cell line MDA-MB-231, and colon cancer cell lines HCT116, HCT116 β/W, and RKO) was assessed by a cytotoxicity assay. Cells were seeded in 96-well culture plates (3,000-5,000 cells/well) and treated with titrated compounds in triplicate. After 96 h incubation, cell growth medium was removed and proliferation reagent WST-8 (Sigma) was added to each well and incubated at 37° C. for 1-3 h. Absorbance was then measured with a plate reader at 450 nm with correction at 650 nm. The results were expressed as the percentage of absorbance of treated wells versus that of vehicle control. IC50, the drug concentration causing 50% growth inhibition, was calculated via sigmoid curve fitting using GraphPad Prism 5.0. The results for those compounds tested against MIAPaCa-2 and MDA-MB-231 are provided in Table 1; the results for those compounds tested against colon cancer cell lines HCT116, HCT116 β/W, and RKO are provided in Table 3.
The cytotoxicity of KH-39 and KH-58 against HuR knockout clones was probed by the same assay as described above. […]

[2] = test system: 2LMP subclone generated from MDA-MB-231; test: 2LMP mouse xenograft model; type: in vivo
Description: Xenograft and orthotopic models of cancer cell lines with HuR overexpression will be used to test the in vivo therapeutic potential of compounds of the present technology. A person of ordinary skill in the art is well apprised of cancer cell lines with HuR overexpression, as exemplified by references 2-12 cited herein in the “References” section. Tumor models will be established as described in Xu, L., et al., (−)−Gossypol enhances response to radiation therapy and results in tumor regression of human prostate cancer. Mol Cancer Ther, 2005. 4(2): p. 197-205.35 Briefly, 4-6 week old athymic NCr-nu/nu mice or 8-10-week-old NOD/SCID mice will be inoculated subcutaneously on both sides of flanks with 0.1 ml of a cell suspension of 1-5×10^6 tumor cells. Tumors will be allowed to grow to approximately 100 mm^3, when the blood vessel supplies to the tumor are established. Each group will contain at least 5 animals with at least 10 tumors across the five animals. Animals will be given compounds or vehicle i.v., i.p. or q.o.d.×2-3 weeks as described in Xu, L., et al., Systemic p53 gene therapy of cancer with immunolipoplexes targeted by anti-transferrin receptor scFv. Mol Med, 2001. 7(10): p. 723-34 and Xu, L., et al., Self-assembly of a virus-mimicking nanostructure system for efficient tumor-targeted gene delivery. […] The tumor sizes and animal body weights will be measured twice a week. […]

MDA-MB-231 cells = test: Matrigel invasion assay; type: cell-based; settings: 10 μM; 24 h pretreatment, 20 h incubation
Protocol: To examine the anti-metastatic effect of compounds of the present technology, an invasion assay using Matrigel Invasion Chambers coated with Matrigel Matrix was performed. To perform the assays, MDA-MB-231 cells pretreated with compounds for 24 hours are added to the chambers and then incubated for 20 hours. Cells that remained on the upper surface of the chamber are completely removed with a cotton swab. Cells that emigrated or invaded through the membrane/Matrigel to the bottom of the chamber were fixed and stained with 0.2% crystal violet and photographed.

Musashi 2 (Msi2) = Musashi 2 (Msi2) (Homo sapiens, UniProt Q96DH6); test: Msi2 FP assay; type: binding; settings: cell marked (RRM1), read-out: Msi2 (Ki) (RRM1)
[3] = test system: MDA-MB-231 mouse xenograft; test: MDA-MB-231 mouse xenograft model, KH-39 alone and with docetaxel; type: in vivo, mice; settings: after three-week treatment; KH-39 i.p. 50 mg/kg 5 times per week; TXT i.v.; ***P<0.001, ****P<0.0001, n=12
Description: Cytotoxicity assays (as described earlier in this disclosure) for various cancer cell lines will also be performed utilizing concentrations of a compound of the present technology that are below the lethal threshold for the compound for the particular cancer (a “sub-lethal concentration”) in combination with a chemotherapeutic compound (e.g., docetaxel or doxorubicin) to illustrate compounds of the present technology sensitize cancer cell lines to chemotherapy. By way of illustration in an in vivo model, in vivo antitumor efficacy of KH-39 was examined in combination with docetaxel (a first-line chemotherapy for human breast cancer) in a MDA-MB-231 mouse xenograft model. For this, tumor-bearing female athymic mice were provided according to the protocols described earlier in the present disclosure and were randomized into four groups. One group of mice was treated with KH-39 (i.p. 50 mg/kg, 5 times per week), one group with docetaxel (TXT; i.v. at the dosages and time intervals indicated in FIG. 12), one group with a combination of KH-39 and TXT (KH-39 i.p. 50 mg/kg, 5 times per week and TXT i.v. at the dosages and time intervals indicated in FIG. 12), and one group of mice as the vehicle control. FIG. 12 illustrates the results, providing the tumor growth curves for each group.

Chain of Musashi 2 (Msi2) (Q96DH6 whole entry, species assumed): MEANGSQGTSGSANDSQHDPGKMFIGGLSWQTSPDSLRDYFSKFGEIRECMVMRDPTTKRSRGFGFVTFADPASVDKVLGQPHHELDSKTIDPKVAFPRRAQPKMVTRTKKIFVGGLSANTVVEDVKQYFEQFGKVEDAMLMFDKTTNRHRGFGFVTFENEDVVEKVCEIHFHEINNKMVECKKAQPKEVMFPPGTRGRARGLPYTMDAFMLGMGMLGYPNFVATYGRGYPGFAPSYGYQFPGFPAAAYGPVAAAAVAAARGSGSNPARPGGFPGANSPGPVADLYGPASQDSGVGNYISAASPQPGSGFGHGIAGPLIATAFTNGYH

For CC(C)(C)c1ccc(C(=O)Nc2ccc3[nH]c(C(=O)NO)cc3c2)cc1 [KH-39, 5-(4-(tert-butyl)benzamido)-N-hydroxy-1H-indole-2-carboxamide], the “IC50 of HuR KO clones versus parental cells and vector control cells” value [1] was “two to three folds higher IC50 values”, the “bodyweight gain of mice” value ([2]; 2LMP xenograft model) was “gain bodyweight with similar trend to those in vehicle control group” and the “tumor growth compared to the vehicle control” value ([2]; after three-week treatment, ****P<0.0001, n=10) was “significantly decreased tumor growth”. The MDA-MB-231 cell invasion (MDA-MB-231 cells) was “clearly inhibited MDA-MB-231 cell invasion”, the Ki (Musashi 2 (Msi2)) was 3.15 µM and the “relative tumor sizes versus control group” value [3] was “significantly smaller than those in control group”.
